SMILES strings stand for the structures. Non-standard residues stand in square brackets, D forms with d. Residues, ends and D or L forms follow the SMILES beside them.

For one data set, the system named is E. coli JM109(DE3). The class given is cell-based, Escherichia coli. Particulars: JM109. In outline: (§1)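 First, peptide stocks in 5% DMSO/9% sucrose were quantified and diluted 2-fold over roughly 400-2 μg/ml. Next, overnight cultures were diluted 4000-fold to ~2.5×10^5 cfu/ml and combined with peptide. Minimum inhibitory concentrations followed NCCLS broth macro- or microdilution procedures.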

Data set [1] deals with vancomycin-resistant Enterococus faecalis (VRE)(ATCC 51575). The class given is cell-based, Enterococcus faecalis. Particulars: for In Vitro VREF MIC / VRE MIC: ATCC 51575; for VRE (in vitro activity): Table 9, media a: AM-3. Set-up: key to VRE (in vitro activity): peptide concentration in μg/ml (broth dilution assay). Put shortly: as §1
The next data set deals with murine red blood cells. The experiment in a line: Red blood cell hemolysis. Type of data set: cell-based, mouse. Put shortly: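 Hemolysis read as A560 of supernatant, scaled between saline (0%) and 1% Triton X-100 (100%) controls; peptides were serially diluted onto 5% murine red cells in saline plus 10% FBS and incubated 30 min at 37° C.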
Another data set in a line: Toxicity studies in mice. Type of data set: in vivo. Details: LD50(IP) / LD50(IV): unit not given here. Particulars: for LD50(IP) / LD50(IV): Table 12, male Balb-C mice; for LD50 at 14 days: male, Balb-C, mouse, in vivo, ip, Table 13. The procedure: Peptides were tested for toxicity in vivo using procedures similar to those described previously. […] Mice (male Balb-C) in groups of 4-8 were given via IV, IP or SQ single bolucdoses of peptides and monitored for 14 days. Toxicity of sublethal doses was assessed based on the behavior and appearance of the mice after peptide administration compared to control mice receiving only vehicle. Signs of acute toxicity included lack of activity, red feet and tail, faster breathing. Death was defined as the end point for lethal doses of peptides.
Toxicology Studies: Initial toxicology studies in mice were conducted to evaluate various routes of drug administration, maximum tolerable dose, and blood and tissue toxicity. Two mice in each dose study were injected with a bolus intravenous (IV), intraperitoneal (IP), or subcutaneous (SQ) doses of peptide SEQ ID NO:8, 18, and 26. For each study, two control animals received vehicle only and no peptide. […] Signs of acute toxicity included any one of the following: lack of activity, red feet and tail, or faster breathing. […] A regimen of […] of peptide SEQ ID NO:18 for three consecutive days was administered to two mice IP and two mice SQ.

Data set [2] deals with S. aureus MRSA (ATCC 33591). Kind of data set: Mouse peritonitis model, MRSA protection. The class given is in vivo, mice. Set-up: PD50 MRSA: unit not given here. The following applies: for PD50 MRSA: Table 12, male Balb-C mice, IP infection, IP peptide; for In Vivo MRSA PD50: Table 13; for protection of mice from MRSA infection: single bolus IP dose of appropriate amount, 45-60 min after infection; for mice survived: fourteen-day study. On the procedure:
Bacteria were prepared for in vivo using procedures similar to those as previously described. […] S. aureus MRSA bacteria (ATCC 33591) were grown at 37° C. in 5 mL of Antibiotic Medium-3 (AM-3, Difco Laboratories) with agitation for 12 hours to a stationary phase. Cells were collected by centrifugation, washed twice with saline solution and resuspended in about 10 mL of saline to an O.D.650 of 1.2. This suspension was diluted ten times in a sterilized 5% mucin (Difco) in saline to a concentration of 2-4×10^7 cfu/ml (actual inoculum size was verified by colony counts on agar plates).
Peptides of the invention were tested in mice to ascertain whether they would protect the mice against bacterial infection using procedures similar to those described in N. Frimodt-Moller et al., The Mouse Peritonitis/Sepsis Model, in Zak et al. (eds.) HANDBOOK OF ANIMAL MODELS OF INFECTION 127-37 (Academic Press 1999).
Male Balb-C mice (6 weeks old, approximately 20 g) were used in the study. Staphylococcus aureus MRSA bacteria (ATCC 33591) were grown at 37° C. with agitation for 12 hours to a stationary phase. Cells were collected by centrifugation, washed twice with saline and resuspended to an O.D.650 of 1.4. This suspension was diluted ten times with saline and resuspended to a concentration of 3-5×10^7 cfu/ml. For each peptide five groups of eight mice per group were infected I.P. with 0.5 ml of the above Staphylococcus aureus MRSA preparation (lethal dose). Forty-five minutes to an hour after infection, each group was treated with a different dose of peptide and a control group received vehicle only. Mice were monitored for fourteen days; death was defined as the end point. Median protecting doses (PD50) were calculated following the Reed and Muench method. […] For IV and SQ models peptide was administered immediately after IP infection.

Consider `CC(C)C[C@H]1NC(=O)[C@H](Cc2c[nH]c3ccccc23)NC(=O)[C@@H](CCCCN)NC(=O)[C@H](CO)NC(=O)[C@@H](CCCCN)NC(=O)[C@H](Cc2c[nH]c3ccccc23)NC(=O)[C@@H](CC(C)C)NC(=O)[C@H](Cc2c[nH]c3ccccc23)NC1=O` [SEQ ID NO:12, D-Lys-Ser-D-Lys-Trp-D-Leu-Trp-D-Leu-Trp] (cyclo([dK]S[dK]W[dL]W[dL]W)), for which the “E. coli MIC” value with E. coli JM109(DE3) amounted to 40 µg/mL. In addition, in data set [1], the “In Vitro VREF MIC” value came to 15 µg/mL, the VRE MIC was 15 µg/mL and the “VRE (in vitro activity)” value was 15. Also, in the data set on murine red blood cells, the “In Vitro RBC MIC” value came to 100 µg/mL and the “RBC Hemolysis (HD50)” value is given as 100. Besides, in “Toxicity studies in mice”, the “LD50(IP)” value is above 400, the “LD50(IV)” value amounted to 70 and the LD50 at 14 days was above 400 mg/kg. For the same compound, in data set [2], the “PD50 S. aureus MRSA infection” value was found to be 20 mg/kg, the “PD50 MRSA” value worked out at 20, the “In Vivo MRSA PD50” value came to 20 mg/kg and the “protection of mice from MRSA infection” value was “completely protect”.

For `CC(C)C[C@H]1NC(=O)[C@H](Cc2c[nH]c3ccccc23)NC(=O)[C@@H](CCCCN)NC(=O)[C@H](CCCNC(=N)N)NC(=O)[C@@H](CCCNC(=N)N)NC(=O)[C@H](Cc2c[nH]c3ccccc23)NC(=O)[C@@H](CC(C)C)NC(=O)[C@H](Cc2c[nH]c3ccccc23)NC1=O` [SEQ ID NO:18, cyclo-(D-Arg-Arg-D-Lys-Trp-D-Leu-Trp-D-Leu-Trp)] (cyclo([dR]R[dK]W[dL]W[dL]W)), the “E. coli MIC” value in the data set on E. coli JM109(DE3) is 15 µg/mL. In data set [1], the “In Vitro VREF MIC” value was 5 µg/mL, the VRE MIC is 5 µg/mL and the “VRE (in vitro activity)” value amounted to 5. In addition, in the data set with murine red blood cells, the “In Vitro RBC MIC” value came to 50 µg/mL and the “RBC Hemolysis (HD50)” value stood at 50. Moreover, in the data set “Toxicity studies in mice”, the “LD50(IP)” value came out at 60, the “LD50(IV)” value was 16 and the LD50 at 14 days was determined as 60 mg/kg. Also, in “Toxicity studies in mice” (mice, 17.5 mg per day, three consecutive days, IP or SQ, over four days), the “physical, social and feeding activities” value is “no apparent changes in the physical, social, and feeding activities”. Also, in the data set “Toxicity studies in mice” (mice, 17.5 mg per day, three days), the “sites of IP and SQ injections” value is “moderate subacute inflammation”. Also, in “Toxicity studies in mice” (mice, 17.5 mg per day, three days, fourth day), the “hematology, necropsy and microscopic examination” value is “normal blood and morphological profiles except for the sites of IP and SQ injections”. The signs of toxicity result in “Toxicity studies in mice” (mice, up to 17.5 mg/kg IP and SQ) is “without any apparent signs of toxicity”. Further, in data set [2], the “PD50 S. aureus MRSA infection” value amounted to 8 mg/kg, the “PD50 MRSA” value came to 8, the “In Vivo MRSA PD50” value is on record as 8 mg/kg and the “protection of mice from MRSA infection” value was “completely protect”. Besides, in data set [2] (40 mg/kg bolus SQ), the mice survived is 75%. The compound further returned a mice survived in data set [2] (2.5×5 mg/kg IV dosage regimen) of 50%. Moreover, the “PD50 protective dose where 50% of animals survive” value in data set [2] (FIG. 6, mice challenged with lethal doses of MRSA) amounted to 5 ± 2 mg/kg.

Regarding `CC(C)C[C@H]1NC(=O)[C@H](Cc2c[nH]c3ccccc23)NC(=O)[C@@H](CCCNC(=N)N)NC(=O)[C@H](CCC(N)=O)NC(=O)[C@@H](CCCCN)NC(=O)[C@H](Cc2c[nH]c3ccccc23)NC(=O)[C@@H](CC(C)C)NC(=O)[C@H](Cc2c[nH]c3ccccc23)NC1=O` [SEQ ID NO:8, cyclo-(D-Lys-Gln-D-Arg-Trp-D-Leu-Trp-D-Leu-Trp)] (cyclo([dK]Q[dR]W[dL]W[dL]W)), in the data set on E. coli JM109(DE3), the “E. coli MIC” value came out at 80 µg/mL. The “In Vitro VREF MIC” value in data set [1] was found to be 12 µg/mL. For the same compound, in the data set on murine red blood cells, the HD50 amounted to 10 µg/mL, the “In Vitro RBC MIC” value turned out to be 40 µg/mL and the “reduction in hemolytic activity” value was “five-fold”. Also, in the data set with murine red blood cells (red cells of murine), the “Hemolysis HD50” value is 45 µg/mL. For the same compound, in the data set “Toxicity studies in mice”, the “LD50(IP)” value stood at 55, the “LD50(IV)” value is above 12 and the LD50 at 14 days is 55 mg/kg. The signs of toxicity result in “Toxicity studies in mice” (mice, IP, maximum tested dose 12 mg/kg) is “no signs of toxicity were observed”. For the same compound, the signs of toxicity entry in “Toxicity studies in mice” (mice, bolus IV 12 mg/kg) is reported as “signs of temporary (<10 min in duration) discomfort”. For the same compound, in data set [2], the “PD50 S. aureus MRSA infection” value is listed as 7 mg/kg, the “PD50 MRSA” value is reported as 7, the “In Vivo MRSA PD50” value was 7 mg/kg and the “protection of mice from MRSA infection” value is “completely protect”.

The term LD50 denotes the dose expected to kill half of the subjects tested.
